A short description of data set [1]: Solubility analysis by dynamic light scattering. The class given is physicochemical. The method, then: (§1) Compound solubilities were measured by dynamic light scattering (Table 1). […] 2. Detection was conducted on a graphene surface. 3. A His-tagged bHLH construct was immobilized on a chip for site-specific functionalization. […] Compounds were also screened against a monomeric form of MAX (mMAX), as well as MYC-MAX and MAX-MAX dimers.
Solubility analysis. Compounds were analyzed for solubility by dynamic light scattering on a DynaPro NanoStar detector (Wyatt Technology). Compounds were dissolved in MES (pH 6.0) from a 1000×DMSO stock at varying concentrations. Samples were analyzed for aggregation and the maximal concentration at which aggregates were not observed was used as the measure of solubility.

The next data set deals with T1, His-tagged MYC (Homo sapiens, UniProt P01106).
T1 construct: A His-tagged bHLH construct was immobilized on a chip for site-specific functionalization; made in house; host or cells: BL21 E. coli
Kind of data set: Bio-FET relative binding studies. As to conditions: Relative to 5a Req; compounds at 10 μM in MES (pH 6.0) with 3% DMSO. Here is the method: as §1
Protein expression and purification. His-tagged MYC, mMAX, MYC-MAX, and MAX-MAX constructs were expressed in BL21 E. coli cells and purified as previously described.^10
FET functionalization and regeneration. FET experiments were conducted on an Agile R100 (Nanomedical Diagnostics) at ambient temperature. Chips were functionalized with Ni-NTA according to manufacturer protocols. […] Ni-NTA functionalized chips were regenerated via treatment with 250 mM imidazole for 30 mins, followed by extensive washing in MES, then reintroduction of His-tagged protein.
Relative binding studies. Test compounds were dissolved to desired concentration in MES (pH 6.0) buffer with 3% DMSO. Protein-bound chips were initialized and rinsed in MES buffer with 3% DMSO. For relative binding studies, 6-8 test compounds (including 5a) were analyzed at 10 μM in a single run, and the Req determined and compared to that of 5a. Compounds were tested a minimum of three times across different chips.

Data set [2] deals with CEF transfected with ATG-MYC. In words: CEF focus assay (microtumor formation). As to conditions: Measured in CEF transfected with ATG-MYC. It is filed as cell-based, chicken. The text has this:
The lead exemplified compound in the prior patent application is termed KJ-Pyr-9 herein. […] CEF assay.

The target in a further data set is T2, MYC (Homo sapiens, UniProt P01106).
T2 construct: A His-tagged bHLH construct was immobilized on a chip for site-specific functionalization; made in house; host or cells: BL21 E. coli
In words: MYC affinity assessment by Bio-FET concentration curve. It is filed as binding. As to conditions: concentration for ½ Rmax, averaged across three chips. The method, then: (§2) A 10 mg/kg i.v. PK study was conducted in mouse to determine if these favored properties translated into improved PK. Non-compartmental analysis of the mouse PK followed by allometric scaling to the rat afforded a comparison to the rat PK study conducted previously on 5a and is shown in Table 2.
FET functionalization and regeneration. FET experiments were conducted on an Agile R100 (Nanomedical Diagnostics) at ambient temperature. Chips were functionalized with Ni-NTA according to manufacturer protocols. Surface-bound Ni-NTA sites were then bound to His-tagged protein by 15 min incubation with ˜100 nM protein in 50 mM MES (pH 6.0). Ni-NTA functionalized chips were regenerated via treatment with 250 mM imidazole for 30 mins, followed by extensive washing in MES, then reintroduction of His-tagged protein.
MYC affinity assessment. […] Varying concentrations of 5g were allowed to equilibrate with MYC, and the Req values plotted against the concentration. […] This was repeated across three chips and the affinity averaged across those three runs.

The nature of data set [3]: PK analysis of 5g, 10 mg/kg i.v. The class given is in vivo, C57BL/6 mice. Here is the method:
as §2
PK analysis. Pharmacokinetic analysis of 5g was conducted by Explora Biolabs. 12 C57BL/6 (6 male, 6 female) mice were administered 5g at 10 mg/kg by IV injection. Blood samples were collected at 2 min and 0.08, 0.25, 0.5, 1, 2, 8 and 24 hours post-injection. Bioanalysis was conducted by Integrated Analytical Solutions by processing through a Shimadzu VP series 10 system LC followed by mass analysis on an Applied Biosystems/MDS SCIEX API 3000 triple quadrupole mass spectrometer. All procedures involving the care and use of animals was approved by the IACUC at Explora BioLabs.

In brackets after ≈: the same amount, converted by molar mass.

T1 sequence (P01106 369-421 limits assumed): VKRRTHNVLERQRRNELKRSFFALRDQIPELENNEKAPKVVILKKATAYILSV
T2 sequence (P01106 369-421 limits assumed): as above

On to `NC(=O)c1ccc(-c2cc(-c3ccc(-c4nccs4)cc3)nc(-c3ccco3)c2)cc1` [Compound 5g], for which the Solubility in data set [1] (Measured by DLS in MES (pH 6.0) with <0.1% DMSO) was determined as 125 µM (≈ 52.9 µg/mL). Moreover, the “FET Req” value on His-tagged MYC was determined as 97%. The compound also yielded an IC50 in data set [2] (Gallus gallus) of 5 µM. The compound also showed a Kd at MYC of 0.0125 ± 0.0041 µM. Besides, the “improvement in exposure (AUC)” value in data set [3] (5g versus 5a) is given as 30 fold. The compound also registered a mean residence time in data set [3] (5g, 10 mg/kg i.v. mouse PK, comparison) of 4.8 h. Besides, in data set [3] (5g, 10 mg/kg i.v., C57Bl6 mice), the AUC is on record as 44,000 ng*h/mL, the CI was 0.228 L/h/kg, the Half-life was 4.8 h and the Vss is given as 0.97 L. For the same compound, in data set [3] (both sexes, C57BL/6, mouse, blood, iv, 5g, 10 mg/kg i.v., C57Bl6 mice), the MRT stood at 4.3 h.
Regarding `N#Cc1ccc(-c2cc(-c3ccc(C(N)=O)cc3)ccn2)cc1` [Compound 7a], the Solubility in data set [1] (pH 6) came out at 32 µM (≈ 9.58 µg/mL). Also, the “FET Req” value on His-tagged MYC is reported as 0%. Further, the IC50 in data set [2] turned out to be 10 µM.
Compound `N#Cc1ccc(-c2cccc(-c3ccco3)n2)cc1` [Compound 7b] yielded a Solubility in data set [1] (pH 6) of 10 µM (≈ 2.46 µg/mL). The “FET Req” value on His-tagged MYC was determined as 0%.

The values are drawn from patent US11613535B2, “Compounds for MYC inhibition” (THE SCRIPPS RESEARCH INSTITUTE, priority 2018, dated 2023).
